Source: patent US11752156B2, “Compositions and methods for treating hyperproliferative skin disorders” (Athenex HK Innovative Limited, priority 2018, dated 2023)
Several values for one entry are separate records, joined by “and”; a condition that tells them apart may be missing. Identical values can stand only once. Like-named read-outs stand apart in the source and are kept apart here.

How the values were obtained:
Assay type in all cases: cell-based
[1] = tested on: human keratinocyte cell line; test: inhibition of human keratinocyte growth, individual dose response, 72 hours, MTT assay; conditions: 72 hour exposure
Experimental: FIG. 4: Inhibition of human keratinocyte growth versus KX01 concentration (treatment duration: 72 hours; cell growth measured using the MTT assay). […] FIG. 5: Inhibition of human keratinocyte growth versus calcipotriol concentration (treatment duration: 72 hours; cell growth measured using the MTT assay). […] A human keratinocyte cell line was used in these studies.

[2] = tested on: human keratinocyte cell line; test: combinatorial dose response surface study of cell viability (PSI), KX01 and calcipotriol; conditions: model estimate
Text: FIG. 6: Dose response surface of cell viability versus calcipotriol concentration versus KX01 concentration. Synergistic combinations of calcipotriol and KX01 are below the surface of additivity (indicating enhanced inhibition of growth), and antagonistic combinations are above the surface of additivity (indicative of reduced inhibition of growth). Individual dose response curves for KX01 and calcipotriol as determined above can be used to generate dose response surfaces representative of the additive effects of these compounds on keratinocyte growth. […] A PSI value of 1 corresponds to an additive effect. A PSI value of less than 1 indicates a synergistic effect, and a PSI value of greater than 1 indicates an antagonistic effect. Cell viability was measured in a number of experiments. In Experiment 1, the concentrations of calcipotriol were: 0, 3, 9, 27, 81, and 243 nM, and the concentrations of KX01 were: 0, 5, 10, 20, 40, 60, 80, and 160 nM. In Experiment 2, the concentrations of calcipotriol were: 0, 5, 10, 20, 40, 80, 160, 320, and 1280 nM, and the concentrations of KX01 were: 1, 3, 9, 27, and 81 nM. […] It is notable that unexpected synergy is observed across a range of concentrations and combinations. Tables 7, 8, and 9 show the results for determination of individual IC50 and maximum inhibitory concentration values for KX01 and calcipotriol, as well as the PSI value for the drug combination. […]

[3] = tested on: squamous cell human carcinoma cell line (SCC A431); test: MTT cell proliferation assay, 72 hours, dark or blue light, squamous cell carcinoma; conditions: for inhibition at 0.005 µM / inhibition at 0.02 µM / inhibition at 0.08 µM / inhibition at 0.32 µM / inhibition at 1.28 µM: Homo sapiens, read-out: growth inhibition relative to untreated control
Experimental: The effects of combined treatment with KX01, a vitamin D derivative, and/or blue/UV light exposure were characterized using a cell proliferation assay. Cell proliferation was assessed by using an MTT assay. Cells were seeded in 96-well plate (3,000-5,000 cells per well) and treated with test compounds at varying concentrations (e.g. KX01: 5 to 80 nM; calcipotriol 5 to 1,280 nM) for 72 hours, either in the dark or exposed to blue light irradiation (for 2, 4, or 6 hours). To each well, 10 μl of 3-(4,5-dimethylthiazol-2-yl)-2,5-diphenyltetrazolium bromide (MTT) (RPI Corporation™) solution (5 mg/ml in PBS) was added and incubated at 37° C. for 3 hours. Next, 100 μl of 20% SDS was added to each well. After overnight incubation at 37° C., the absorbance in each well was measured at 570 nm in a microplate reader (Molecular Devices™). The cell growth curve and GI50s were calculate using GraphPad Prism™ 5 software. Similar studies were performed using a squamous cell carcinoma cell line (SCC A431). Tables 19 and 20 show the results of cell growth inhibition studies (expressed as a percentage relative to control cell growth) for treatment with either KX01 or calcipotriol in combination with exposure to blue light. […] The percentage of growth inhibition relative to untreated control is shown. Tables 21 to 24 show the effects of combined treatment with KX01, calcipotriol, and exposure to blue light at 0 hours, 2 hours, 4 hours, and 6 hours of light exposure (respectively) on human squamous cell carcinoma cells. Values are expressed as the percentage of growth inhibition relative to cells grown under control conditions (0 hours blue light, [KX01]=0, [calcipotriol]=0). The percentage of growth inhibition relative to an untreated control is shown. […] Results are shown below in Tables 31 and 32, which show results for KX01 and calcipotriol (respectively). Values are expressed as the percentage of growth inhibition relative to cells grown under control conditions (0 hours blue light, [KX01]=0, [calcipotriol]=0). […] Results are shown below in Tables 33 to Table 36, which show results from 0, 2, 4, and 6 hours of blue light exposure (respectively). Values are expressed as the percentage of growth inhibition relative to cells grown under control conditions (0 hours blue light, [KX01]=0, [calcipotriol]=0).

Compound: C=C1/C(=C\C=C2/CCC[C@]3(C)[C@@H]([C@H](C)/C=C/[C@@H](O)C4CC4)CC[C@@H]23)C[C@@H](O)C[C@@H]1O [Calcipotriol, calcipotriol]
- IC50 [1]: 95.5 nM
- IC50 ([2]; Homo sapiens, Keratinocyte): 112 nM
- IC50 [2]: 59.3 nM
- Max Inhibition [2]: 0.474 and 0.36 and 0.439
- inhibition at 0.005 µM ([3]; A-431, 0 h, calcipotriol 5 nM, blue light 0 h): 19%
- inhibition at 0.02 µM ([3]; A-431, 0 h, calcipotriol 20 nM, blue light 0 h): 30%
- inhibition at 0.08 µM ([3]; A-431, 0 h, calcipotriol 80 nM, blue light 0 h): 40%
- inhibition at 0.32 µM ([3]; A-431, 0 h, calcipotriol 320 nM, blue light 0 h): 41%
- inhibition at 1.28 µM ([3]; A-431, 0 h, calcipotriol 1,280 nM, blue light 0 h): 36%
- inhibition at 0.005 µM ([3]; A-431, 2 h, calcipotriol 5 nM, blue light 2 h): 26%
- inhibition at 0.02 µM ([3]; A-431, 2 h, calcipotriol 20 nM, blue light 2 h): 36%
- inhibition at 0.08 µM ([3]; A-431, 2 h, calcipotriol 80 nM, blue light 2 h): 41%
- inhibition at 0.32 µM ([3]; A-431, 2 h, calcipotriol 320 nM, blue light 2 h): 35%
- inhibition at 1.28 µM ([3]; A-431, 2 h, calcipotriol 1,280 nM, blue light 2 h): 38%
- inhibition at 0.005 µM ([3]; A-431, 4 h, calcipotriol 5 nM, blue light 4 h): 49%
- inhibition at 0.02 µM ([3]; A-431, 4 h, calcipotriol 20 nM, blue light 4 h): 44%
- inhibition at 0.08 µM ([3]; A-431, 4 h, calcipotriol 80 nM, blue light 4 h): 47%
- inhibition at 0.32 µM ([3]; A-431, 4 h, calcipotriol 320 nM, blue light 4 h): 49%
- inhibition at 1.28 µM ([3]; A-431, 4 h, calcipotriol 1,280 nM, blue light 4 h): 43%
- inhibition at 0.005 µM ([3]; A-431, 6 h, calcipotriol 5 nM, blue light 6 h): 67%
- inhibition at 0.02 µM ([3]; A-431, 6 h, calcipotriol 20 nM, blue light 6 h): 69%
- inhibition at 0.08 µM ([3]; A-431, 6 h, calcipotriol 80 nM, blue light 6 h): 67%
- inhibition at 0.32 µM ([3]; A-431, 6 h, calcipotriol 320 nM, blue light 6 h): 67%
- inhibition at 1.28 µM ([3]; A-431, 6 h, calcipotriol 1,280 nM, blue light 6 h): 68%
- growth inhibition relative to untreated control ([3]; calcipotriol 5 nM, blue light 0 h): 14%
- growth inhibition relative to untreated control ([3]; calcipotriol 5 nM, blue light 2 h): 27%
- growth inhibition relative to untreated control ([3]; calcipotriol 5 nM, blue light 4 h): 50%
- growth inhibition relative to untreated control ([3]; calcipotriol 5 nM, blue light 6 h): 62%
- growth inhibition relative to untreated control ([3]; calcipotriol 20 nM, blue light 2 h): 39%
- growth inhibition relative to untreated control ([3]; calcipotriol 20 nM, blue light 4 h): 48%
- growth inhibition relative to untreated control ([3]; calcipotriol 20 nM, blue light 6 h): 63%
- growth inhibition relative to untreated control ([3]; calcipotriol 80 nM, blue light 0 h): 27%
- growth inhibition relative to untreated control ([3]; calcipotriol 80 nM, blue light 4 h): 50%
- growth inhibition relative to untreated control ([3]; calcipotriol 80 nM, blue light 6 h): 61%
- growth inhibition relative to untreated control ([3]; calcipotriol 320 nM, blue light 0 h): 31%
- growth inhibition relative to untreated control ([3]; calcipotriol 320 nM, blue light 2 h): 37%
- growth inhibition relative to untreated control ([3]; calcipotriol 320 nM, blue light 4 h): 51%
- growth inhibition relative to untreated control ([3]; calcipotriol 320 nM, blue light 6 h): 60%
- growth inhibition relative to untreated control ([3]; calcipotriol 1,280 nM, blue light 0 h): 28%
- growth inhibition relative to untreated control ([3]; calcipotriol 1,280 nM, blue light 2 h): 39%
- growth inhibition relative to untreated control ([3]; calcipotriol 1,280 nM, blue light 4 h): 48%
- growth inhibition relative to untreated control ([3]; calcipotriol 1,280 nM, blue light 6 h): 58% and 57%
